# According to patent publication US10398788B2, “Polymer and contrast agent for photoacoustic imaging including the polymer” (CANON KABUSHIKI KAISHA, priority 2014, dated 2019):
# Legend:
# [1] = background art; cited from earlier work
# [2] = Photo-fading under near-infrared pulse laser irradiation; type: physicochemical; conditions: 4 irradiations
# Protocol: With respect to each of Cy7-PMPC (58 k) represented by the formula (47), 700DX-PMPC (57 k) represented by the formula (48), 800CW-PMPC (57 k) represented by the formula (49) and 800RS-PMPC (57 k) represented by the formula (50) obtained in Examples 22, 23, 24 and 25, respectively, and ICG-PMPC (48 k) represented by formula (46) described in Example 12, 2.0 mL of a sample was prepared in which the concentration of each dye-bound PMPC was adjusted so that the absorbance at the maximum absorption wavelength was 0.15. A sample of single ICG as Comparative Example was also prepared. Herein, the irradiation wavelength of near-infrared pulse laser light by use of the PAT apparatus and the excitation wavelength in fluorescence spectrum measurement were set to be the maximum absorption wavelengths of each dye-bound PMPC and ICG. Herein, the excitation wavelengths and the fluorescence emission wavelengths of each dye-bound PMPC and ICG were summarized in FIG. 16. The amount of near-infrared pulse laser light was set to be 8 to 9 mJ at each wavelength, and irradiation at 120 points (detector position) per 20 times was defined as one irradiation and such irradiation was performed at most four times. […] The resultant sample was placed in a 100-μL cuvette, subjected to fluorescence spectrum measurement (FP-6300 manufactured by JASCO Corporation), and studied with respect to photo-fading. […]
smiles,measurement,setting,value
"CC1(C)C(/C=C/C=C/C=C/C=C2/N(CCCCS(=O)(=O)[O-])c3ccc4ccccc4c3C2(C)C)=[N+](CCCCS(=O)(=O)[O-])c2ccc3ccccc3c21.[Na+] [ICG, indocyanine green]",Half-life in blood,[1],about several minutes
same,Photo-fading: normalized fluorescent intensity remaining after laser irradiation,[2],about 15%
